One series deals with T1, PCSK9 protein (Homo sapiens, UniProt Q8NBP7).
T1 construct: purchased Sino biology (Sino Biological) 29698-H08H
The experiment in a line: Binding ability to PCSK9 protein (HTRF). To be noted: PCSK9-His, Alexa Fluor 647 probe compound. How it is done:
1. Experimental objective: To detect the action of compounds to bind PCSK9 protein by an HTRF method.
3. Experimental data processing method: Four-parameter log(inhibitor) vs. response—Variable slope (four parameters) in XLit was used to perform non-linear fitting of the compound concentration and the corresponding inhibition rate, and IC50 was calculated.
For orientation: In TR-FRET formats the signal depends on donor and acceptor labels being close together.

Series [1] in a line: Pharmacokinetic determination in mice (PO 5 mg/kg, IV 1 mg/kg). It counts as in vivo, C57BL/6J mice. The conditions noted are these: male, C57BL/6J, mouse, plasma, C57 mice, PO administration, 5 mpk. How it is done:
1. Experimental objective: C57BL/6J mice were used as test animals to study the pharmacokinetic behavior of the compounds of the present disclosure in mice (plasma) after oral and intravenous administration.
2.2 Test animals: C57 mice, male, purchased from Shanghai Bk Lab Animal Co., Ltd., with animal production license number (SCXK (Shanghai) 2013-0006 N0.311620400001794).
2.3 Drug preparation: Preparation of oral drug: 10% Solutol HS15
10 g of Solutol HS15 solid was weighed, dissolved in 90 mL of pure water, uniformly mixed, stirred, and ultrasonically treated to form a clear solution. The compound of the present disclosure was weighed and dissolved in this solution, uniformly shaken, and ultrasonically treated for 15 minutes to obtain a colorless clear solution with a concentration of 0.5 mg/mL. Preparation of intravenous drug: 5% DMSO+10% Solutol HS15+85% PBS, the compound of the present disclosure was weighed, 5% DMSO was first added on the basis of the proportion relative to the total volume of administration, and the mixture was vortexed and ultrasonically treated for 2 min until it was completely dissolved; 10% of Solutol HS15 was then added, and the mixture was vortexed and ultrasonically treated for 2 min until it was completely dissolved; and finally, 85% of PBS was added, and the mixture was vortexed, ultrasonically treated for 5 min, and filtered through a 0.22 um filter membrane to obtain a colorless and transparent clear solution with a concentration of 0.2 mg/mL.
2.4 Administration: 3 male C57 mice were fasted overnight and then respectively administered PO at a dose of 5 mg/kg and a volume of 10 mL/kg. 3 male C57 mice were fasted overnight and then respectively administered IV at a dose of 1 mg/kg and a volume of 5 mL/kg.
2.5 Sample collection: Before and after administration of mice, 0.04 mL of blood was collected from the orbit at 0.083 (iv), 0.25, 0.5, 1, 2, 4, 8, and 24 hours, and placed in EDTA-K2 test tubes, which was centrifuged at 6000 rpm at 4° C. for 6 min to separate plasma which was stored at −80° C.; and the […] were fed 4 h after administration.
2.6 Determination results: The final determination results were obtained by using an LCMS/MS method.
3. Experimental results: The main pharmacokinetic parameters were calculated using WinNonlin 6.1.

SMILES strings stand for the structures. pIC50: −log10 of the molar value.

T1 sequence (Q8NBP7 153-692): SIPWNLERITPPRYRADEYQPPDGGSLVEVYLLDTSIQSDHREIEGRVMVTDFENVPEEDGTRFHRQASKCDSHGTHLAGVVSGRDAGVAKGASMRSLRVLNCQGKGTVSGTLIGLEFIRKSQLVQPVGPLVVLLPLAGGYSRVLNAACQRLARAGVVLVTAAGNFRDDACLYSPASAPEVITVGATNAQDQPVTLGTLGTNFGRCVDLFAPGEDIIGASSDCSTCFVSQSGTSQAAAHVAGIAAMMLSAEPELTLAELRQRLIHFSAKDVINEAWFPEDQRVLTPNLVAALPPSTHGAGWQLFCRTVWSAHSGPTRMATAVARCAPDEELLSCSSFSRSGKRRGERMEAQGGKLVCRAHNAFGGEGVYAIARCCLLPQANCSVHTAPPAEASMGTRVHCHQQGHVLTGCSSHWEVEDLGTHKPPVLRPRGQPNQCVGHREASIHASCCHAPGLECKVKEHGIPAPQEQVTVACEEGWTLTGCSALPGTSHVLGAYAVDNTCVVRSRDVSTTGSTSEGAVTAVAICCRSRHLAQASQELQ

Regarding `O=c1ccncn1-c1ccc(N[C@H]2CC[C@H](Nc3nc4cc(F)ccn4n3)C2)nc1` [Example 28, 3-(6-(((1S,3S)-3-((7-fluoro-[1,2,4]triazolo[1,5-a]pyridin-2-yl)amino)cyclopentyl)amino)pyridin-3-yl)pyrimidin-4(3H)-one], the pIC50 (as a rule, −log10 of the IC50, conventionally taken in molar units) at PCSK9 protein is 7.76.

For `O=c1cnccn1-c1ccc(N[C@H]2CC[C@H](Nc3nc4cc(F)ccn4n3)C2)nc1` [Example 29, 1-(6-(((1S,3S)-3-((7-fluoro-[1,2,4]triazolo[1,5-a]pyridin-2-yl)amino)cyclopentyl)amino)pyridin-3-yl)pyrazin-2(1H)-one], the pIC50 on PCSK9 protein is 7.74. Take `O=C1COCCN1c1ccc(N[C@H]2CC[C@H](Nc3nc4cc(F)ccn4n3)C2)nc1` [Example 53, 4-(6-(((1S,3S)-3-((7-fluoro-[1,2,4]triazolo[1,5-a]pyridin-2-yl)amino)cyclopentyl)amino)pyridin-3-yl)morpholin-3-one]: the pIC50 on PCSK9 protein was 7.36.

In the case of `O=C1c2ncc(F)cc2CN1c1ccc(N[C@H]2CC[C@H](Nc3nc4cc(OC(F)F)ccn4n3)C2)nc1` [Example 98], on PCSK9 protein, the pIC50 is 8.18.

Take `O=c1nc(O)ccn1-c1ccc(N[C@H]2CC[C@H](Nc3nc4cc(F)ccn4n3)C2)nc1` [Example 102]: the negative logarithm of the IC50 (pIC50) at PCSK9 protein is 7.88. In the case of `O=c1nc(O)ccn1-c1ccc(N[C@H]2CC[C@H](Nc3nc4cc(C(F)F)ccn4n3)C2)nc1` [Example 104], the pIC50 at PCSK9 protein was 7.86. In turn, `O=c1nc(O)ccn1-c1ccc(N[C@H]2CC[C@H](Nc3nc4cc(OC(F)F)ccn4n3)C2)nc1` [Example 105] showed a pIC50 on PCSK9 protein of 8.04.

The compound `Cc1ccn2nc(N[C@H]3CC[C@H](Nc4ccc(-n5ccc(O)nc5=O)cn4)C3)nc2c1` [Example 106] showed a pIC50 at PCSK9 protein of 7.97. On PCSK9 protein, `O=c1nc(O)ccn1-c1ccc(N[C@H]2CC[C@H](Nc3nc4cc(C5CC5)ccn4n3)C2)nc1` [Example 107] had a negative logarithm of the IC50 (pIC50) of 7.67. Consider `O=c1nc(O)c(C(F)(F)F)cn1-c1ccc(N[C@H]2CC[C@H](Nc3nc4cc(C(F)(F)F)ccn4n3)C2)nc1` [Example 119], for which, on PCSK9 protein, the pIC50 was 7.64.

`Cc1cnc2c(c1)C(=O)N(c1ccc(N[C@H]3CC[C@H](Nc4nc5cc(OC(F)F)ccn5n4)C3)nc1)C2` [Example 128] gave a pIC50 at PCSK9 protein of 8.07. `Cc1ccc2c(n1)CN(c1ccc(N[C@H]3CC[C@H](Nc4nc5cc(OC(F)F)ccn5n4)C3)nc1)C2=O` [Example 131] gave a pIC50 on PCSK9 protein of 8.17. Besides, the AUC(0-inf) in series [1] (read-out: Area under the curve AUC0-∞) turned out to be 22400 ng·h/mL. Moreover, the half-life in series [1] (read-out: Half-life t1/2 (converted)) was 204 min. In series [1] (read-out: Mean residence time MRT), the MRT (usually the average time that molecules of a dose stay in the body) is 2.7 h. For the same compound, the Cmax in series [1] (read-out: Plasma concentration Cmax) was 7170 ng/mL. Moreover, the time of peak concentration (Tmax) (usually the time at which the peak concentration occurs) in series [1] (read-out: Time to peak tmax) came to 30 min. At PCSK9 protein, `O=C1c2c(F)ccnc2CN1c1ccc(N[C@H]2CC[C@H](Nc3nc4cc(OC(F)F)ccn4n3)C2)nc1` [Example 135] showed a pIC50 of 8.27. In turn, `N#Cc1cnc2c(c1)C(=O)N(c1ccc(N[C@H]3CC[C@H](Nc4nc5cc(F)ccn5n4)C3)nc1)C2` [Example 137] showed a pIC50 on PCSK9 protein of 7.80. Take `O=C1c2ccc(O)nc2CN1c1ccc(N[C@H]2CC[C@H](Nc3nc4cc(OC(F)F)ccn4n3)C2)nc1` [Example 138]: on PCSK9 protein, the pIC50 is 8.06. At PCSK9 protein, `O=C1c2nc(O)ccc2CN1c1ccc(N[C@H]2CC[C@H](Nc3nc4cc(C(F)(F)F)ccn4n3)C2)nc1` [Example 139] had a pIC50 of 7.44. In the case of `Cc1cc(N[C@H]2CC[C@H](Nc3nc4cc(C(F)(F)F)ccn4n3)C2)ncc1N1Cc2nc(O)ccc2C1=O` [Example 144], the negative logarithm of the IC50 (pIC50) on PCSK9 protein is 7.81. This pIC50 lies 0.37 log units higher than the previous one. Consider `O=C1c2cccnc2CN1c1cnc(N[C@H]2CC[C@H](Nc3nc4cc(OC(F)F)ccn4n3)C2)c(F)c1` [Example 152], for which the pIC50 at PCSK9 protein is 8.17.

On PCSK9 protein, `O=C1c2cc(F)cnc2CN1c1cnc(N[C@H]2CC[C@H](Nc3nc4cc(OC(F)F)ccn4n3)C2)c(F)c1` [Example 158] showed a pIC50 of 7.80. Turning to `Cc1cc2c(cn1)CN(c1cnc(N[C@H]3CC[C@H](Nc4nc5cc(OC(F)F)ccn5n4)C3)c(F)c1)C2=O` [Example 160], the pIC50 at PCSK9 protein is 8.11.

For the compound `O=C1c2ncccc2CN1c1cnc(N[C@H]2CC[C@H](Nc3nc4cc(C5CC5)ccn4n3)C2)c(F)c1` [Example 166], the pIC50 on PCSK9 protein was 8.10. Regarding `CC(C)(O)c1ccn2nc(N[C@H]3CC[C@H](Nc4ncc(N5Cc6cccnc6C5=O)cc4F)C3)nc2c1` [Example 168], the pIC50 at PCSK9 protein was 7.97. The pIC50 values of the last two compounds are within 0.2 log units of each other.

Take `COc1cc(N2Cc3cccnc3C2=O)cnc1N[C@H]1CC[C@H](Nc2nc3cc(C(F)(F)F)ccn3n2)C1` [Example 170]: the negative-log IC50 (pIC50) on PCSK9 protein was 7.88. As to `Cc1nc(N[C@H]2CC[C@H](Nc3nc4cc(C(F)(F)F)ccn4n3)C2)ccc1N1Cc2cccnc2C1=O` [Example 176], on PCSK9 protein, the pIC50 was 8.04. This pIC50 and that of the compound before are within 0.2 log units of each other. Same read-out and setting: under `CC(C)(O)c1cccn(-c2cnc(N[C@H]3CC[C@H](Nc4nc5cc(C(F)(F)F)ccn5n4)C3)c(F)c2)c1=O` [Example 182] stands 7.53; under `Cc1cc2c(cn1)CN(c1cnc(N[C@H]3CC[C@H](Nc4nc5cc(F)ccn5n4)C3)c(F)c1)C2=O` [Example 190], 8.07; under `O=c1[nH]cc(-c2cnc(N[C@H]3CC[C@H](Nc4nc5cc(C(F)(F)F)ccn5n4)C3)c(F)c2)c(=O)[nH]1` [Example 195], 8.02.

As to `CC(C)(O)c1cnc2c(c1)CN(c1cnc(N[C@H]3CC[C@H](Nc4nc5cc(F)ccn5n4)C3)c(F)c1)C2=O` [Example 196], the pIC50 on PCSK9 protein is 8.06. This pIC50 and that of the compound before are within 0.2 log units of each other. `CC(C)(O)c1ccnc2c1CN(c1cnc(N[C@H]3CC[C@H](Nc4nc5cc(F)ccn5n4)C3)c(F)c1)C2=O` [Example 197]: the pIC50 at PCSK9 protein was 8.12. `O=C1c2nccn2CCN1c1cnc(N[C@H]2CC[C@H](Nc3nc4cc(C(F)(F)F)ccn4n3)C2)c(F)c1` [Example 213] gave a negative-log IC50 (pIC50) on PCSK9 protein of 8.02. This pIC50 and that of the compound before are within 0.2 log units of each other.

Compound `Cc1ccn2nc(N[C@H]3CC[C@H](Nc4ncc(N5Cc6ncccc6C5=O)cc4F)C3)nc2c1` [Example 223] had a negative-log IC50 (pIC50) at PCSK9 protein of 8.14. Regarding `Cc1ccn2nc(N[C@H]3CC[C@H](Nc4ncc(-n5ccccc5=O)cc4F)C3)nc2c1` [Example 224], the pIC50 at PCSK9 protein was 8.07. This pIC50 and that of the compound before are within 0.2 log units of each other.

For `Cc1ccn2nc(N[C@H]3CC[C@H](Nc4ncc(-n5ccc(O)nc5=O)cc4F)C3)nc2c1` [Example 225], the pIC50 at PCSK9 protein is 8.07. On to `Cc1ccn2nc(N[C@H]3CC[C@H](Nc4ncc(N5CCn6nccc6C5=O)cc4F)C3)nc2c1` [Example 226], for which, at PCSK9 protein, the pIC50 was 8.15. Consider `Cc1nc(N[C@H]2CC[C@H](Nc3nc4cc(C(F)(F)F)ccn4n3)C2)c(F)cc1N1CCn2nccc2C1=O` [Example 238], for which the pIC50 at PCSK9 protein is 8.10.
